Data taken from patent US8952042B2, “FXR (NR1H4) binding and activity modulating compounds” (Phenex Pharmaceuticals AG, priority 2009, dated 2015).

Assays:
[1] = molecular target: T1, human FXR alpha ligand binding domain (Homo sapiens, UniProt Q96RI1); experiment: FRET activity assay (ligand mediated cofactor peptide interaction, LANCE); format: biochemical; conditions: potency range
T1 construct: made in house; host or cells: E. coli BL21(DE3), vector pDEST15
T1 sequence (Q96RI1 187-472 isoform Q96RI1-2): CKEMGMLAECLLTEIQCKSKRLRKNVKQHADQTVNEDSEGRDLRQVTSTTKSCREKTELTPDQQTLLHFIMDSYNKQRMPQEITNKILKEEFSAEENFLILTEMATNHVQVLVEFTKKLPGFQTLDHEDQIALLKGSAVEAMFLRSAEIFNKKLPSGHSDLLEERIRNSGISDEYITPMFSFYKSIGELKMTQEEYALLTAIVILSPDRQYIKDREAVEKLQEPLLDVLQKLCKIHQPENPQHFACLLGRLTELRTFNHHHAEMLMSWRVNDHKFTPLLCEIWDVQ
Protocol: Determination of a ligand mediated cofactor peptide interaction to quantify ligand binding to the nuclear receptor FXR was performed as follows: Preparation of human FXR alpha ligand binding domain: The human FXRalpha LBD was expressed in E. coli strain BL21(DE3) as an N-terminally GST tagged fusion protein. The DNA encoding the FXR ligand binding domain was cloned into vector pDEST15 (Invitrogen). Expression was under control of an IPTG inducible T7 promoter. The amino acid boundaries of the ligand binding domain were amino acids 187-472 of Database entry NM_005123 (RefSeq). Expression and purification of the FXR-LBD: An overnight preculture of a transformed E. coli strain was diluted 1:20 in LB-Ampicillin medium and grown at 30° C. to an optical density of OD600=0.4-0.6. Gene expression was then induced by addition of 0.5 mM IPTG. Cells were incubated an additional 6 h at 30° C., 180 rpm. Cells were collected by centrifugation (7000×g, 7 min, room temperature). Per liter of original cell culture, cells were resuspended in 10 mL lysis buffer (50 mM Glucose, 50 mM Tris pH 7.9, 1 mM EDTA and 4 mg/mL lysozyme) and left on ice for 30 min. Cells were then subjected to sonication and cell debris removed via centrifugation (22000×g, 30 min, 4° C.). Per 10 mL of supernatant 0.5 mL prewashed Glutathione 4B sepharose slurry (Qiagen) was added and the suspension kept slowly rotating for 1 h at 4° C. Glutathione 4B sepharose beads were pelleted by centrifugation (2000×g, 15 sec, 4° C.) and washed twice in wash buffer (25 mM Tris, 50 mM KCl, 4 mM MgCl2 and 1M NaCl). The pellet was resuspended in 3 mL elution buffer per liter of original culture (elution buffer: 20 mM Tris, 60 mM KCl, 5 mM MgCl2 and 80 mM glutathione added immediately prior to use as powder). The suspension was left rotating for 15 min at 4° C., the beads pelleted and eluted again with half the volume of elution buffer than the first time. The eluates were pooled and dialysed overnight in 20 mM Hepes buffer (pH 7.5) containing 60 mM KCl, 5 mM MgCl2 as well as 1 mM dithiothreitol and 10% (v/v) glycerol. The protein was analysed by SDS-Page.
The method measures the ability of putative ligands to modulate the interaction between the purified bacterial expressed FXR ligand binding domain (LBD) and a synthetic biotinylated peptide based on residues 676-700 of SRC-1 (LCD2, 676-700). […] The ligand binding domain (LBD) of FXR was expressed as fusion protein with GST in BL-21 cells using the vector pDEST15. Cells were lysed by sonication, and the fusion proteins purified over glutathione sepharose (Pharmacia) according to the manufacturers instructions. For screening of compounds for their influence on the FXR-peptide interaction, the Perkin Elmer LANCE technology was applied. This method relies on the binding dependent energy transfer from a donor to an acceptor fluorophor attached to the binding partner of interest. For ease of handling and reduction of background from compound fluorescence LANCE technology makes use of generic fluorophore labels and time resolved detection Assays were done in a final volume of 25 μL in a 384 well plate, in a Tris-based buffer (20 mM Tris-HCl pH 7.5; 60 mM KCl, 5 mM MgCl2; 35 ng/μL BSA), containing 20-60 ng/well recombinantly expressed FXR-LBD fused to GST, 200-600 nM N-terminally biotinylated peptide, representing SRC1 aminoacids 676-700, 200 ng/well Streptavidin-xIAPC conjugate (Prozyme) and 6-10 ng/well Eu W1024—antiGST (Perkin Elmer). DMSO content of the samples was kept at 1%. After generation of the assay mix and diluting the potentially FXR modulating ligands, the assay was equilibrated for one hour in the dark at room temperature in FIA-plates black 384 well (Greiner). The LANCE signal was detected by a Perkin Elmer VICTOR2V™ Multilabel Counter. The results were visualized by plotting the ratio between the emitted light at 665 and 615 nm.

[2] = molecular target: T2, FXR ligand binding domain (Homo sapiens, UniProt Q96RI1); experiment: Mammalian One Hybrid (M1H) Gal4 reporter assay in HEK293 cells; format: cell-based; conditions: potency range
T2 construct: expressed in transfected cells; host or cells: HEK293 cells (DSMZ), transient transfection of pCMV-BD-FXR-LBD
T2 sequence (Q96RI1 187-472 isoform Q96RI1-2): T1 sequence (Q96RI1 187-472 isoform Q96RI1-2)
Protocol: Determination of a ligand mediated Gal4 promoter driven transactivation to quantify ligand binding mediated activation of FXR was performed as follows: The cDNA part encoding the FXR ligand binding domain was cloned into vector pCMV-BD (Stratagene) as a fusion to the yeast GAL4 DNA binding domain under the control of the CMV promoter. The amino acid boundaries of the ligand binding domain were amino acids 187-472 of Database entry NM_005123 (RefSeq). The plasmid pFR-Luc (Stratagene) was used as the reporter plasmid, containing a synthetic promoter with five tandem repeats of the yeast GAL4 binding sites, driving the expression of the Photinus pyralis (American firefly) luciferase gene as the reporter gene. In order to improve experimental accuracy the plasmid pRL-CMV (Promega) was cotransfected. pRL-CMV contains the constitutive CMV promoter, controlling the expression of the Renilla reniformis luciferase. All Gal4 reporter gene assays were done in HEK293 cells (obtained from DSMZ, Braunschweig, Germany) grown in MEM with L-Glutamine and Earle's BSS supplemented with 10% fetal bovine serum, 0.1 mM nonessential amino acids, 1 mM sodium pyruvate, and 100 units Penicillin/[…] per mL at 37° C. in 5% CO2. Medium and supplements were obtained from Invitrogen. For the assay, […] were plated per well in 96 well plates in 100 μL per well MEM without Phenol Red and L-Glutamine and with Earle's BSS supplemented with 10% charcoal/dextran treated FBS (HyClone, South Logan, Utah), 0.1 mM nonessential amino acids, 2 mM glutamine, 1 mM sodium pyruvate, and 100 units Penicillin/[…] per mL, incubated at 37° C. in 5% CO2. The following day the cells were >90% confluence. Medium was removed and cells were transiently transfected using 20 μL per well of a OptiMEM—polyethylene-imine-based transfection-reagent (OptiMEM, Invitrogen; Polyethyleneimine, Aldrich Cat No. 40, 827-7) including the three plasmids described above. MEM with the same composition as used for plating cells was added 2-4 h after addition of transfection mixture. Then compound stocks, prediluted in MEM were added (final vehicle concentration not exceeding 0.1%). Cells were incubated for additional 16 h before firefly and renilla luciferase activities were measured sequentially in the same cell extract using a Dual-Light-Luciferase-Assay system (Dyer et al., Anal. Biochem. 2000, 282, 158-161). All experiments were done in triplicates.

SMILES | EC50 [1] [nM] | EC50 [2] [nM]
O=C(O)CNC(=O)c1ccc(C2CC2c2ccc(OCc3c(-c4c(Cl)cccc4Cl)noc3C3CC3)cc2Cl)cc1 (stereo not shown) [Example 28, 2-(4-(2-(2-chloro-4-((5-cyclopropyl-3-(2,6-dichlorophenyl)isoxazol-4-yl)methoxy)phenyl)cyclopropyl)benzamido)acetic acid] | > 100 | > 100
O=C(O)c1ccc(C2CC2c2ccc(OCc3c(-c4ccccc4OC(F)(F)F)noc3C3CC3)cc2Cl)cc1 (stereo not shown) [Example 24] | > 100 | > 100
CC(C)(O)c1onc(-c2c(Cl)cccc2Cl)c1COc1ccc(C2CC2c2ccc(C(=O)O)cc2)c(Cl)c1 (stereo not shown) [Example 17, 4-(2-(2-chloro-4-((3-(2,6-dichlorophenyl)-5-(2-hydroxypropan-2-yl)isoxazol-4-yl)methoxy)phenyl)cyclopropyl)benzoic acid] | > 100 | > 100
O=C(O)c1ccc(C2CC2c2ccc(OCc3c(-c4c(Cl)cccc4Cl)noc3C3CC3)cc2Cl)cn1 (stereo not shown) [Example 8, 5-(2-(2-chloro-4-((5-cyclopropyl-3-(2,6-dichlorophenyl)isoxazol-4-yl)methoxy)-phenyl)cyclopropyl)picolinic acid] | 10 to 100 | 10 to 100
O=C(O)c1cccc(C2CC2c2ccc(OCc3c(-c4c(Cl)c[n+]([O-])cc4Cl)noc3C3CC3)cc2Cl)c1 (stereo not shown) [Example 2, 4-(4-((4-(2-(3-carboxyphenyl)cyclopropyl)-3-chlorophenoxy)methyl)-5-cyclopropylisoxazol-3-yl)-3,5-dichloropyridine 1-oxide] | 10 to 100 | 10 to 100
CC(C)c1nnn(-c2c(Cl)cccc2Cl)c1COc1ccc(C2CC2c2cccc(C(=O)O)c2)c(Cl)c1 (stereo not shown) [Example 3, 3-(2-(2-chloro-4-((1-(2,6-dichlorophenyl)-4-isopropyl-1H-1,2,3-triazol-5-yl)methoxy)phenyl)cyclopropyl)benzoic acid] | 10 to 100 | 10 to 100

Second part, the molecule after the results:

EC50 [1] [nM] | EC50 [2] [nM] | SMILES
10 to 100 | 10 to 100 | CC(C)c1onc(-c2c(Cl)cccc2Cl)c1COc1ccc(C2CC2c2cccc(C(=O)O)c2)c(Cl)c1 (stereo not shown) [Example 6, 3-(2-(2-chloro-4-((3-(2,6-dichlorophenyl)-5-isopropylisoxazol-4-yl)methoxy)phenyl)cyclopropyl)benzoic acid]
< 10 | 10 to 100 | O=C(O)c1cccc(C2CC2c2ccc(OCc3c(-c4c(Cl)cccc4Cl)noc3C3CC3)cc2Cl)c1 (single isomer, unassigned; (-)) [Example 5a, (−)-3-(2-(2-chloro-4-((5-cyclopropyl-3-(2,6-dichlorophenyl)isoxazol-4-yl)methoxy)phenyl)cyclopropyl)benzoic acid]
10 to 100 | 10 to 100 | Cn1nc(C(=O)O)c2ccc(C3CC3c3ccc(OCc4c(-c5c(Cl)cccc5Cl)noc4C4CC4)cc3Cl)cc21 (single isomer, unassigned; (+)) [Example 13a, (+)-6-(2-(2-chloro-4-((5-cyclopropyl-3-(2,6-dichlorophenyl)isoxazol-4-yl)methoxy)phenyl)cyclopropyl)-1-methyl-1H-indazole-3-carboxylic acid]
10 to 100 | > 100 | O=C(NCCS(=O)(=O)O)c1ccc(C2CC2c2ccc(OCc3c(-c4c(Cl)cccc4Cl)noc3C3CC3)cc2Cl)cc1 (stereo not shown) [Example 15, 2-(4-(2-(2-chloro-4-((5-cyclopropyl-3-(2,6-dichlorophenyl)isoxazol-4-yl)methoxy)phenyl)cyclopropyl)benzamido)ethanesulfonic acid]
< 10 | < 10 | CC(C)n1nc(C(=O)O)c2ccc(C3CC3c3ccc(OCc4c(-c5c(Cl)cccc5Cl)noc4C4CC4)cc3Cl)cc21 (stereo not shown) [Example 21, 6-(2-(2-chloro-4-((5-cyclopropyl-3-(2,6-dichlorophenyl)isoxazol-4-yl)methoxy)phenyl)cyclopropyl)-1-isopropyl-1H-indazole-3-carboxylic acid]
10 to 100 | 10 to 100 | O=C(O)c1cccc(C2CC2c2ccc(OCc3c(-c4c(Cl)cncc4Cl)noc3C3CC3)cc2Cl)c1 (stereo not shown) [Example 1, 3-(2-(2-chloro-4-((5-cyclopropyl-3-(3,5-dichloropyridin-4-yl)isoxazol-4-yl)methoxy)phenyl)cyclopropyl)-benzoic acid]
10 to 100 | 10 to 100 | Cn1nc(C(=O)O)c2ccc(C3CC3c3ccc(OCc4c(-c5c(Cl)cccc5Cl)noc4C4CC4)cc3Cl)cc21 (racemic) [Example 13, 6-(2-(2-chloro-4-((5-cyclopropyl-3-(2,6-dichlorophenyl)isoxazol-4-yl)methoxy)phenyl)cyclopropyl)-1-methyl-1H-indazole-3-carboxylic acid]
< 10 | < 10 | Cn1nc(C(=O)O)c2ccc(C3CC3c3ccc(OCc4c(-c5c(Cl)cccc5Cl)noc4C4CC4)cc3Cl)cc21 (single isomer, unassigned; (-)) [Example 13b, (−)-6-(2-(2-chloro-4-((5-cyclopropyl-3-(2,6-dichlorophenyl)isoxazol-4-yl)methoxy)phenyl)cyclopropyl)-1-methyl-1H-indazole-3-carboxylic acid]
